Test results as given in ChEMBL document CHEMBL1141279, “Benzylphenethylamine alkaloids from Hosta plantaginea with inhibitory activity against tobacco mosaic virus and acetylcholinesterase” (J Nat Prod, 2007).
Calls of active or inactive are those of the source. The calls are words filed in the database; no cut-off is given here.

Tests used:
Acetylcholinesterase = Acetylcholinesterase (Homo sapiens, UniProt P22303)
Description: Inhibition of AChE by Ellman method

Tobacco mosaic virus [1] = test: Antiviral activity against Tobacco mosaic virus U1 after 72 hrs by half leaf method; format: functional, organism-based; settings: for IC50: U1, 72 h
Tobacco mosaic virus [2] = test: Antiviral activity against Tobacco mosaic virus U1 at 1 ug/mL after 72 hrs by half leaf method; format: functional; settings: U1, 72 h

Chain of Acetylcholinesterase (P22303 whole entry): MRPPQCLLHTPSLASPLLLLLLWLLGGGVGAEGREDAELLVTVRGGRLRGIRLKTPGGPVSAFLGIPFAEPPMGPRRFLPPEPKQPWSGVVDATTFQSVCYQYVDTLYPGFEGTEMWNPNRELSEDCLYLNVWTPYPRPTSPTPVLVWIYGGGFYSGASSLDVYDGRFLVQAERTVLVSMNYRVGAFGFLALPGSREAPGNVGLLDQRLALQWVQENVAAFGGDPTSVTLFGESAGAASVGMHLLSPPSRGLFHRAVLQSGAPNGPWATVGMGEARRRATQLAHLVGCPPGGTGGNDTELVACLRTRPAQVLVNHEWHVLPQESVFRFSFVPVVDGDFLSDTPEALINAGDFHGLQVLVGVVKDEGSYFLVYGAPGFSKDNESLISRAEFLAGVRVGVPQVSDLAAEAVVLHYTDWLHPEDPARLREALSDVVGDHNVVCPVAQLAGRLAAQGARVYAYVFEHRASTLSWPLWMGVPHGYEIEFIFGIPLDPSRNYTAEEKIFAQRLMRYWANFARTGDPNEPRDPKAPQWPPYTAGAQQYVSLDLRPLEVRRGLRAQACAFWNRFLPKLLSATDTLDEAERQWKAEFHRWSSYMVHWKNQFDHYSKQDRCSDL

Row | SMILES | IC50 (Acetylcholinesterase) [µM] | Activity (Tobacco mosaic virus [1]) | further results
1 | COc1cc2c(c(OC)c1OC)C(=O)O[C@]21[C@H](O)[C@@H](O)C=C2CCN(C)[C@H]21 | 113 |  | 
2 | O=C1N[C@H]2[C@H](O)[C@H](O)[C@@H](O)C[C@@H]2c2cc3c(cc21)OCO3 |  |  | IC50 (Tobacco mosaic virus [1]): 1.8 µM
3 | CC(=O)O[C@H]1[C@H]2c3cc4c(cc3CN3CCC(=C[C@@H]1O)[C@H]23)OCO4 | 0.96 |  | 
4 | COc1cc2c(cc1OC)[C@]1(OC2=O)[C@H](O)[C@@H](O)C=C2CCN(C)[C@H]21 | 2.32 | inactive | 
5 | CO[C@@H]1C=C[C@@]23c4cc5c(cc4[C@H](O)N(C[C@@H]2O)[C@H]3C1)OCO5 |  | inactive | 
6 | COc1cc2c(c(OC)c1OC)C(=O)O[C@@H]1CC=C3CCN(C)[C@H]3[C@H]21 |  | inactive | 
7 | O[C@@H]1C=C[C@@]23c4cc5c(cc4CN(C[C@@H]2O)[C@H]3C1)OCO5 |  | inactive | 
8 | CO[C@@H]1C=C[C@@]23c4cc5c(cc4CN(C[C@@H]2O)[C@H]3C1)OCO5 [(+)-HAEMANTHAMINE] | 452 |  | 
9 | COc1ccc2c3c(c4cc(OC)c(OC)cc4c2c1)C[C@H]1CCCN1C3 [(-)-ANTOFINE] |  |  | inhibition at 1 µg/mL (Tobacco mosaic virus [2]): 65%
10 | COc1cc2c(cc1OC)-c1cccc3c1N(CC3)C2 [ASSOANINE] | 3.87 |  | 
11 | O[C@H]1[C@H]2c3cc4c(cc3CN3CCC(=C[C@@H]1O)[C@H]23)OCO4 [LYCORINE] | 155 | inactive | 
12 | Oc1ccc2c3c1O[C@H]1C[C@@H](O)C=C[C@@]31CCNC2 [NORSANGUININE] | 1.43 | inactive | 
13 | NC(=O)c1ncn([C@@H]2O[C@H](CO)[C@@H](O)[C@H]2O)n1 [RIBAVIRIN] |  |  | IC50 (Tobacco mosaic virus [1]): 2990 µM
14 | [O-]c1cc2c3c(c1)c1cc4c(cc1c[n+]3CC2)OCO4 [UNGEREMINE] | 3.85 |  | 
